Reference: ChEMBL document CHEMBL5291721, “A preclinical secondary pharmacology resource illuminates target-adverse drug reaction associations of marketed drugs” (Nat Commun, 2023)
Blank lines part the entries; values can stand above or below the compound they belong to.

Assays:
[1] = target: T1, Oxysterols receptor LXR-alpha (Homo sapiens, UniProt Q13133); format: functional
T1 sequence (Q13133 whole entry): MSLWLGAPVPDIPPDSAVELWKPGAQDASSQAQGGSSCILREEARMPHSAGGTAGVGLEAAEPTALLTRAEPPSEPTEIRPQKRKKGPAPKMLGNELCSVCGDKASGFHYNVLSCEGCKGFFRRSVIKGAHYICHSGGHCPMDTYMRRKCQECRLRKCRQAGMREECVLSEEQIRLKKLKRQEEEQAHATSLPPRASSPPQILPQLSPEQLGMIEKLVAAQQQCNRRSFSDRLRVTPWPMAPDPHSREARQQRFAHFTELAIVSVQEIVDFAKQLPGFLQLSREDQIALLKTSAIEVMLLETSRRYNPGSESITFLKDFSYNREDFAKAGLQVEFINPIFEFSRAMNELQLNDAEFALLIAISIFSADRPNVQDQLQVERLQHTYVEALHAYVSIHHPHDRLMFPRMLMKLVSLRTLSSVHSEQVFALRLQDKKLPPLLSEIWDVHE

[2] = target: T2, Retinoic acid receptor beta (Homo sapiens, UniProt P10826); format: functional, cell-based
T2 sequence (P10826 whole entry): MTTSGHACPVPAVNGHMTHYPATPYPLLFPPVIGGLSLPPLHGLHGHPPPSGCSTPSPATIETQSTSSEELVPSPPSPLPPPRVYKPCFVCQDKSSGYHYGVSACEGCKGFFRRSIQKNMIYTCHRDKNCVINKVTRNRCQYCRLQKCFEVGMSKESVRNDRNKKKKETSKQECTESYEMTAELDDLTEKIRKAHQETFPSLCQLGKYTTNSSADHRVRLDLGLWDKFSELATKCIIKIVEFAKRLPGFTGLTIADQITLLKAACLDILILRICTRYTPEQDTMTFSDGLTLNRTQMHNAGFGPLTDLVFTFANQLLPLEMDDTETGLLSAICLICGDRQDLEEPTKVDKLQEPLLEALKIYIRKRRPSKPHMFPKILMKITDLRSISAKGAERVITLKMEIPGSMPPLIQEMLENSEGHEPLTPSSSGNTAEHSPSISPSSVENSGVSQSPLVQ

[3] = target: T3, Retinoic acid receptor gamma (Homo sapiens, UniProt P13631); format: functional, cell-based
T3 sequence (P13631 whole entry): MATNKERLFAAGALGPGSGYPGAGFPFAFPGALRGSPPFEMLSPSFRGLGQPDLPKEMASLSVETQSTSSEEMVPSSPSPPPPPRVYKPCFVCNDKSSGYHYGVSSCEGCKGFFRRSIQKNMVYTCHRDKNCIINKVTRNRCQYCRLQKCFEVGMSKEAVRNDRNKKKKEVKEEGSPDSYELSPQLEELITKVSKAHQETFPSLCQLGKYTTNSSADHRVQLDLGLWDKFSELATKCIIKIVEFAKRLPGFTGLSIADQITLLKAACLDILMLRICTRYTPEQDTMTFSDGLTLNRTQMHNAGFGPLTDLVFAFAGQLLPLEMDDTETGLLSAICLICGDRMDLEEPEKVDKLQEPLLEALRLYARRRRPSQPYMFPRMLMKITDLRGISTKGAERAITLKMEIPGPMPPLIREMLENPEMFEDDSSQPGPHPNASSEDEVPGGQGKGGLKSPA

[4] = target: T4, Estrogen receptor (Homo sapiens, UniProt P03372); format: functional
T4 sequence (P03372 whole entry): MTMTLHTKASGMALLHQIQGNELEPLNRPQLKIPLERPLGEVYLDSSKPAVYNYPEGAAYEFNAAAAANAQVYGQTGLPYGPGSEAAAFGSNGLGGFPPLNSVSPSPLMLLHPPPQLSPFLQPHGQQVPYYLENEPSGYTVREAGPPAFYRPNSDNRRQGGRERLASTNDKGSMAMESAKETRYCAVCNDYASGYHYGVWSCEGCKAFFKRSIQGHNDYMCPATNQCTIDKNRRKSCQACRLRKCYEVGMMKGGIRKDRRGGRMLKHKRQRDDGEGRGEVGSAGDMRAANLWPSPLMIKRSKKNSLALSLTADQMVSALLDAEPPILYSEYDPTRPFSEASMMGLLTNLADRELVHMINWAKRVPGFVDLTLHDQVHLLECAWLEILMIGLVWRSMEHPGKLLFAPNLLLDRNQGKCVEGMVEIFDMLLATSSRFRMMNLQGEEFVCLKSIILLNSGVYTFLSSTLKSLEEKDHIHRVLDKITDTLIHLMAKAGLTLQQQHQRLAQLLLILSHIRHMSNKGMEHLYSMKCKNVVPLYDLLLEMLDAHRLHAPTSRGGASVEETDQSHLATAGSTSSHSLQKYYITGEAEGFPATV

[5] = target: T4, Estrogen receptor; format: functional; remark: listed apart in the source
[6] = target: T5, Alpha-1A adrenergic receptor (Homo sapiens, UniProt P35348)
T5 sequence (P35348 whole entry): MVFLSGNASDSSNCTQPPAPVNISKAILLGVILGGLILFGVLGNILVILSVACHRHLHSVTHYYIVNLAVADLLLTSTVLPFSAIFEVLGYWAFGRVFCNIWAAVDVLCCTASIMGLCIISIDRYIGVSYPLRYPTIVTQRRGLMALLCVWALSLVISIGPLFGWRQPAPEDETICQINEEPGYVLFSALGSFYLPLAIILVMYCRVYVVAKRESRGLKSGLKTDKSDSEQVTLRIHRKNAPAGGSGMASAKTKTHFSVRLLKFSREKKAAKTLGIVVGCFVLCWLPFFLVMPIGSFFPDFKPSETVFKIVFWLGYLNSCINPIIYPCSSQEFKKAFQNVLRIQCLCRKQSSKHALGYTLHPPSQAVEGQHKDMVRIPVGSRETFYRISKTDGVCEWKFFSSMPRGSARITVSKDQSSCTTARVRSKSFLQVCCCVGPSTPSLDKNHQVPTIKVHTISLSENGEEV

[7] = target: T6, Muscarinic acetylcholine receptor M1 (Homo sapiens, UniProt P11229)
T6 sequence (P11229 whole entry): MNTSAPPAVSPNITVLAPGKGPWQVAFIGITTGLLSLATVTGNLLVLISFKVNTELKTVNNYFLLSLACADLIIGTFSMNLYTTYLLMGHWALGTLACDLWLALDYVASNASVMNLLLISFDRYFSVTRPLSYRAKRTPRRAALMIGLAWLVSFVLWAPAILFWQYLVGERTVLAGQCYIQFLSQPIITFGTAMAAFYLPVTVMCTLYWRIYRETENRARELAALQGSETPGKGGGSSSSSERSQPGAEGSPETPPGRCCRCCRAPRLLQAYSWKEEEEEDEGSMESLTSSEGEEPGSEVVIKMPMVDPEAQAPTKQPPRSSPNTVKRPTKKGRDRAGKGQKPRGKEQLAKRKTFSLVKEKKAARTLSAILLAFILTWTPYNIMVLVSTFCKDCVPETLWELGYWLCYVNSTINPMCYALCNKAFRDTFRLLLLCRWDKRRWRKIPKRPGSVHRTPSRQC
Further: assay procedure not described here.

- AC50 [1]: > 30 µM
- AC50 [2]: > 30 µM
- AC50 [3]: > 30 µM
Compound: CC(C)c1c(C(=O)Nc2ccccc2)c(-c2ccccc2)c(-c2ccc(F)cc2)n1CC[C@@H](O)C[C@@H](O)CC(=O)O [ATORVASTATIN]

- AC50 [4]: > 30 µM
- AC50 [5]: > 30 µM
Compound: [H]/N=C(/N)c1ccc(NCc2nc3cc(C(=O)N(CCC(=O)O)c4ccccn4)ccc3n2C)cc1 [DABIGATRAN]

- AC50 [6]: > 30 µM
- AC50 [7]: > 30 µM
Compound: BIVALIRUDIN
